# In patent US12291494B2, “Methods of treating fibrosis” (Nogra Pharma Limited, priority 2012, dated 2025):
# Legend:
# α-SMA = assay: Liver gene expression by quantitative Real Time PCR: α-SMA; format: in vivo, mice; conditions: liver mRNA, normalized to β-actin; CCl4 group 65.51 ± 22.24
# Method: (§1) The effect of administration of compound 34 (GED) and the specific CB2 agonist (JWH-133) was evaluated on the level of gene expression of cytokines (IL-1β, TNF-α) and genes involved in the mechanism of fibrosis by quantitative Real Time PCR.
# (§2) Total RNA was isolated from livers using Rneasy kit (Macherey Nagel, Hoerdt, France) according to the manufacturer's instructions. RNA quantification was performed using spectrophotometry. After treatment at 37° C. for 30 min with 20-50 units of RNase-free DNase I (Roche Diagnostics Corporation, Indianapolis, IN, USA), oligo-dT primers (Roche Diagnostics Corporation, Indianapolis, USA) were used to synthesize single-stranded cDNA. mRNAs were quantified using SYBR green Master Mix (Applera, Courtaboeuf, France) with murine specific oligonucleotides (see Table 2) in a GeneAmp Abiprism 7000 (Applera, Courtaboeuf, France). In each assay, calibrated and no-template controls were included. Each sample was run in triplicate. SYBR green dye intensity was analyzed using the Abiprism 7000 SDS software (Applera, Courtaboeuf, France). All results were normalized to the unaffected housekeeping gene β-actin.
# Collagen-1 = assay: Liver gene expression by quantitative Real Time PCR: collagen-1; format: in vivo, mice
# Method: as §1, §2
# Male C57bl6 mice = assay: CCl4-induced liver fibrosis: histology (Metavir score); format: in vivo
# Method: Liver fibrosis was induced in Male C57bl6 mice (Charles River, l'Arbresle, France) by injection of carbon tetrachloride (CCl4). The C57bl6 mice weighed 22-25 g and were maintained in laboratory conditions for 1 week before experiment. Animals were housed 5 per cage with food and water available ad libitum.
# The effectiveness of compound 34 (specific ligand of PPARg) as compared to JWH-133 (anti-fibrogenic agent) was evaluated. Compound 34 was administered orally in combination with CCl4 injections for ca. 5 weeks. Compound 34 was dosed daily at 200 uL of a 30 mM solution. JWH-133 was administered daily via intraperitoneal injections at 3 mg/kg (dose volume=100 uL). The model of liver fibrosis is induced by chronic exposure to increased dosages of CCl4 for 5 weeks. The first week, mice received an intraperitoneal injection of CCl4, resuspended in olive oil, at the dosage of 80 μl/kg of mice body weight twice a week. At week 2, 3 injections of CCl4 at the dosage of 160 μl/kg were performed every two days. At week 3, 3 injections of CCl4 at the dosage of 240 μl/kg were performed every two days. At week 4, 3 injections of CCl4 at the dosage of 320 μl/kg were performed every two days. Mice were euthanized, at week 5, 3 days after the last CCl4 administration.
# The formalin-fixed liver tissue was processed and 5 μm thick paraffin sections were stained with hematoxylin and eosin (H&E) and Picrosirius red staining (specific coloration for collagen in tissue sections) to evaluate the degree of fibrosis in the liver. Each section was analyzed blindly by 3 different experimenters for the quantification of the degree of fibrosis for each lobe of the liver (5) using the Metavir score (see FIG. 2A for Metavir Score chart). The photographs seen in FIG. 2B were obtained with a 20× objective.
compound,measurement,setting,value
CCCC(C)(C)c1ccc2c(c1)OC(C)(C)[C@@H]1CC=C(C)C[C@@H]21 [JWH-133],α-SMA,α-SMA,30.07 ± 4.7
same,liver concentration of collagen-1 mRNA,"Collagen-1; CCl4 mice, result in words",normalizes
same,Collagen-1,"Collagen-1; liver mRNA, normalized to β-actin, CCl4 group 138.12 ± 34.68",87.59 ± 16.97
same,decrease of the fibrotic score (adapted Metavir score) compared to untreated animals,Male C57bl6 mice; FIG. 3B,14.2%
same,mean Metavir score (FIG. 3A),"Male C57bl6 mice; compound 34 30 mM 200 uL oral daily, JWH-133 3 mg/kg i.p. daily, CCl4 vehicle group 2.5±0.5",2±0
same,degree of fibrosis (Metavir),Male C57bl6 mice; result in words,decrease in the degree of fibrosis from severe to moderate fibrosis
same,decrease of hepatic fibrotic lesions,Male C57bl6 mice; summary statement,14%
